Here are results for 32 compounds from the Kinase Knowledgebase extract (Sharma et al. 2016).

SMILES strings stand for the structures.

By IC50 is commonly meant the concentration at which inhibition is half-maximal.

This experiment addresses PIK3CD (Human) (UniProt O00329). As to the kind of experiment: Assessment of PI3KCD Kinase Activity.

PIK3CD (Human), sequence (O00329 whole entry, looked up): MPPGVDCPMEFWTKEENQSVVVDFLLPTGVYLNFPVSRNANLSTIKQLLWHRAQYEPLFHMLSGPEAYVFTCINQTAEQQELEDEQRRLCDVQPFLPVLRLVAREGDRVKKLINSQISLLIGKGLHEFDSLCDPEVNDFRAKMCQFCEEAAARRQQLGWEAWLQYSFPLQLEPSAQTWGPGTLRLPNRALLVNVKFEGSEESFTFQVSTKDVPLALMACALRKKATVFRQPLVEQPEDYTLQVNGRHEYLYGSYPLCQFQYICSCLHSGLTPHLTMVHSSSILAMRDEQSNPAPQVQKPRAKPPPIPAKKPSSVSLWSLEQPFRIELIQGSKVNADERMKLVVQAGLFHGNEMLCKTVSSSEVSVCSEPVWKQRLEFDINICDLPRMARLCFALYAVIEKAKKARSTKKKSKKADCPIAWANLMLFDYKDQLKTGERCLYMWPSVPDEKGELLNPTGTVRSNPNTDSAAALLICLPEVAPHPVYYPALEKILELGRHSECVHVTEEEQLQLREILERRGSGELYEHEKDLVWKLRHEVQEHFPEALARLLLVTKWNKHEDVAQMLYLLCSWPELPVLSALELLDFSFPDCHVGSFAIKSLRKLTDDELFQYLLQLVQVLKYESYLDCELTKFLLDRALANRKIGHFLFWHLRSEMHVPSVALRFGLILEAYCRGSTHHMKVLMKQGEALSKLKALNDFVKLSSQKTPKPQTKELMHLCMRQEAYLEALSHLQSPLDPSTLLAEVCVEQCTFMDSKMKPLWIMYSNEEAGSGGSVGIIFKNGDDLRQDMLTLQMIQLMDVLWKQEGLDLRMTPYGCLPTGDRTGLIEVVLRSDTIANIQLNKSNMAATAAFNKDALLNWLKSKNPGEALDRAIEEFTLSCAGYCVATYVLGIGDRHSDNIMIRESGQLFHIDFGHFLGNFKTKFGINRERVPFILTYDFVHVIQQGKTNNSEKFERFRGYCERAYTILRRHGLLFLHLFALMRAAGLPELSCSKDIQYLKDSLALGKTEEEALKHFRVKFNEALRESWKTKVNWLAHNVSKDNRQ

As for `Cc1cccc2cc(Cn3nc(-c4cc(O)cc(F)c4)c4c(N)ncnc43)n(C)c(=O)c12`, the IC50 is < 100 nM.
Consider `Cc1ccccc1-n1c(Cn2nc(Br)c3c(N)ncnc32)nc2scc(C(F)(F)F)c2c1=O`, for which the IC50 was < 100 nM.
In the case of `Cc1cccc2cc(Cn3nc(-c4cnn(CCO)c4)c4c(N)ncnc43)n(-c3ccccc3F)c(=O)c12` it was < 100 nM; in that of `CCn1c(Cn2nc(-c3cccc(O)c3)c3c(N)ncnc32)cc2cccc(C)c2c1=O`, < 100 nM; in that of `CC(C)n1c(Cn2nc(-c3cccc(O)c3)c3c(N)ncnc32)cc2cccc(Cl)c2c1=O`, < 100 nM.
In the case of `Cc1ccccc1-n1c(Cn2nc(Cl)c3c(N)ncnc32)nc2nccc(C)c2c1=O` it was < 100 nM; in that of `COc1ccccc1-n1c(Cn2nc(C#C[C@@H](C)O)c3c(N)ncnc32)nc2scc(C)c2c1=O`, < 100 nM; in that of `Cc1csc2nc(Cn3nc(-c4cccc(O)c4)c4c(N)ncnc43)n(-c3ccccc3Cl)c(=O)c12`, < 100 nM.
In the case of `Cc1cccc2cc(Cn3nc(-c4cccc(O)c4)c4c(N)ncnc43)n(-c3ccccc3F)c(=O)c12` it was < 100 nM; in that of `Cc1csc2nc(Cn3nc(Br)c4c(N)ncnc43)n(-c3ccccc3F)c(=O)c12`, < 100 nM; in that of `Cc1csc2nc(Cn3nc(I)c4c(N)ncnc43)n(-c3ccccc3Cl)c(=O)c12`, < 100 nM.
Regarding `Cc1csc2nc(Cn3nc(Br)c4c(N)ncnc43)n(-c3ccccc3C(F)(F)F)c(=O)c12`, the IC50 was < 100 nM.
In the case of `Cc1csc2nc(Cn3nc(C#C[C@@H](C)O)c4c(N)ncnc43)n(-c3ccccc3C(C)C)c(=O)c12` it was < 100 nM.
For `Cc1cccc2cc(Cn3nc(C#C[C@@H](C)O)c4c(N)ncnc43)n(C3CC3)c(=O)c12`, the IC50 is < 100 nM.
In the case of `C=Cc1nn(Cc2cc3cccc(C)c3c(=O)n2-c2ccccc2C)c2ncnc(N)c12` it was < 100 nM.
In the case of `COc1ccccc1-n1c(Cn2nc(Cl)c3c(N)ncnc32)nc2scc(C)c2c1=O` it was < 100 nM; in that of `Cc1ccnc2nc(Cn3nc(I)c4c(N)ncnc43)n(-c3ccccc3F)c(=O)c12`, < 100 nM.
`Cc1csc2nc(Cn3nc(Br)c4c(N)ncnc43)n(-c3ccccc3Cl)c(=O)c12`: the IC50 was < 100 nM.
In the case of `Cc1csc2nc(Cn3nc(Cl)c4c(N)ncnc43)n(-c3ccccc3C(F)(F)F)c(=O)c12` it was < 100 nM; in that of `Cc1ccccc1-n1c(Cn2nc(-c3cccc(O)c3)c3c(N)ncnc32)cc2ccccc2c1=O`, < 100 nM.
The result for `Cc1cccc2cc(Cn3nc(C#C[C@@H](C)O)c4c(N)ncnc43)n(C3CCCCC3)c(=O)c12` reads < 100 nM; that for `Cc1cccc2cc(Cn3nc(-c4cc(O)cc(F)c4)c4c(N)ncnc43)n(C3CCCCC3)c(=O)c12`, < 100 nM.
The result for `Cc1cccc2cc(Cn3nc(I)c4c(N)ncnc43)n(C(C)C)c(=O)c12` reads < 100 nM; that for `Cc1cccc2cc(Cn3nc(C#C[C@@H](C)O)c4c(N)ncnc43)n(C3CCCC3)c(=O)c12`, < 100 nM.
With `Cc1ccccc1-n1c(Cn2nc(I)c3c(N)nccc32)cc2cccc(C)c2c1=O`, the IC50 is < 100 nM.
As for `Cc1ccccc1-n1c(Cn2nc(-c3cccc(O)c3)c3c(N)ncnc32)nc2scc(C(F)(F)F)c2c1=O`, the IC50 was < 100 nM.
The result for `Cc1ccccc1-n1c(Cn2nc(C#CCO)c3c(N)ncnc32)cc2cccc(C)c2c1=O` reads < 100 nM.
Turning to `Nc1ncnc2c1c(I)nn2Cc1cc2cccc(Cl)c2c(=O)n1C1CC1`, the IC50 is < 100 nM.
The result for `Cc1csc2nc(Cn3nc(C#C[C@@H](C)O)c4c(N)ncnc43)n(-c3ccccc3C(F)(F)F)c(=O)c12` reads < 100 nM; that for `Cc1ccccc1-n1c(Cn2nc(-c3cc(O)cc(F)c3)c3c(N)ncnc32)cc2ncccc2c1=O`, < 100 nM; that for `CC(C)n1c(Cn2nc(-c3cc(O)cc(F)c3)c3c(N)ncnc32)cc2ccccc2c1=O`, < 100 nM.
For the compound `Cc1csc2nc(Cn3nc(-c4cc(O)cc(F)c4)c4c(N)ncnc43)n(-c3ccccc3Cl)c(=O)c12`, the IC50 is < 100 nM.
